Biological target: not listed separately
Assay: Binding affinity to bovine xanthine oxidase/xanthine substrate complex assessed as inhibition constant
Set-up: species or system Bos taurus
Settings: not given; call rule not given here

Ki | Structure (SMILES)
0.36 µM | CC(C)n1cc(C#N)c2cc(-c3cc(C(=O)O)no3)ccc21

Biological target: T1, Xanthine dehydrogenase/oxidase (Bos taurus, UniProt P80457)
Assay: Inhibition of bovine xanthine oxidase using xanthine as substrate at 10.0 uM measured 30 secs interval for 5 mins by spectrophotometry relative to control
Settings: cattle

T1 sequence (P80457 whole entry): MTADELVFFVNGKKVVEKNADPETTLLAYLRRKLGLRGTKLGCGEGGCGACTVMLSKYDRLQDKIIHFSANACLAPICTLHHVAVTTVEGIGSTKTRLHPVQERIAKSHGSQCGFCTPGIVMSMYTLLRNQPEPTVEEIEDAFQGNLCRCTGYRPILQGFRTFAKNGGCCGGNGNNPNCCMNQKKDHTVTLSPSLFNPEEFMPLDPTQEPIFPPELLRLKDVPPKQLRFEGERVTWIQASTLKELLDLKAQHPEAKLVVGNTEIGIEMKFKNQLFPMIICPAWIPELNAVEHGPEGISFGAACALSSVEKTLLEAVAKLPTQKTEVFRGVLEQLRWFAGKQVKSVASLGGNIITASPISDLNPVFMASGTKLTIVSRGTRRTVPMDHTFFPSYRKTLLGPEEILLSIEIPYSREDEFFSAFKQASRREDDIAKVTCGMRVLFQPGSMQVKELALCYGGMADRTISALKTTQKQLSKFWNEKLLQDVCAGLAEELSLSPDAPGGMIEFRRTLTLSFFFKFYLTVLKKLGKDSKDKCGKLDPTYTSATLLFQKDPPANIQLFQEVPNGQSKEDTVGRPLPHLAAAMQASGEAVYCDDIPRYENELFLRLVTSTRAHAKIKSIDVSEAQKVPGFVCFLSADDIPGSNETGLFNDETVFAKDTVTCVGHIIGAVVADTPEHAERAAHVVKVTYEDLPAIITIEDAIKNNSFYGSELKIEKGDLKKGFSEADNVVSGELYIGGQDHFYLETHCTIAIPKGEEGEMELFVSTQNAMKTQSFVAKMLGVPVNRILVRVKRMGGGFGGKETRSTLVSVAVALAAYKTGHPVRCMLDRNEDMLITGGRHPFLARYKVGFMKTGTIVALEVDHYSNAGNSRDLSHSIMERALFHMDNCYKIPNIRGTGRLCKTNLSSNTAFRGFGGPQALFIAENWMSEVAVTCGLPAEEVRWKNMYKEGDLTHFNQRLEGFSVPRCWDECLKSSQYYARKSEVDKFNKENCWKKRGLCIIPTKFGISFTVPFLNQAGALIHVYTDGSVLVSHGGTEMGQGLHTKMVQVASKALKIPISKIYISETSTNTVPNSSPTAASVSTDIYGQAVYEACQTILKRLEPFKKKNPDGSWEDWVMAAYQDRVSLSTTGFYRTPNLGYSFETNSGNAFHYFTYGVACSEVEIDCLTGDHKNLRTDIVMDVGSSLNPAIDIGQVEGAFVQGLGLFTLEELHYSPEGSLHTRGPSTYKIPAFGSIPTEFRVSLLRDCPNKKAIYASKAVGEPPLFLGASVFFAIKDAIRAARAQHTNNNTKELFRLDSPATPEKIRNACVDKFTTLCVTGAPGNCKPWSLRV

inhibition at 10 µM | Structure (SMILES)
< 50% | CCOC(=O)c1cc(-c2ccc3c(c2)c(C#N)cn3C(C)C)on1
< 50% | CC(C)=Cn1ccc2cc(-c3cc(C(=O)O)no3)ccc21

Biological target: T1, Xanthine dehydrogenase/oxidase
Assay: Potency index, ratio of Allopurinol IC50 to test compound IC50 for inhibition of bovine xanthine oxidase using xanthine as substrate by measuring uric acid formation measured 30 secs interval for 5 mins by spectrophotometry analysis
Settings: cattle

Structure (SMILES) | Ratio IC50
CC(C)n1cc(C#N)c2cc(-c3cc(C(=O)O)no3)ccc21 | 22

Biological target: T1, Xanthine dehydrogenase/oxidase
Assay: Inhibition of bovine xanthine oxidase using xanthine as substrate by measuring uric acid formation measured 30 secs interval for 5 mins by spectrophotometry analysis
Settings: not given

Structure (SMILES) | IC50
CCCCCn1cc(C#N)c2cc(-c3cc(C(=O)O)no3)ccc21 | 0.6 µM
CCn1cc(C#N)c2cc(-c3cc(C(=O)O)no3)ccc21 | 0.56 µM
CCCCn1cc(C#N)c2cc(-c3cc(C(=O)O)no3)ccc21 | 0.54 µM
N#Cc1c[nH]c2ccc(-c3cc(C(=O)O)no3)cc12 | 3.1 µM
N#Cc1cn(Cc2ccccc2)c2ccc(-c3cc(C(=O)O)no3)cc12 | 1.03 µM
CC#Cn1cc(C#N)c2cc(-c3cc(C(=O)O)no3)ccc21 | 0.57 µM
N#Cc1cn(Cc2cccc(Cl)c2)c2ccc(-c3cc(C(=O)O)no3)cc12 | 1.84 µM
N#Cc1cn(Cc2ccc(Br)cc2)c2ccc(-c3cc(C(=O)O)no3)cc12 | 1.17 µM
N#Cc1cn(Cc2ccc(F)cc2)c2ccc(-c3cc(C(=O)O)no3)cc12 | 0.6 µM
N#Cc1cn(Cc2cccc(F)c2)c2ccc(-c3cc(C(=O)O)no3)cc12 | 1.29 µM
N#Cc1cn(Cc2ccc(Cl)cc2)c2ccc(-c3cc(C(=O)O)no3)cc12 | 1.26 µM

Second part, the molecule after the results:

IC50 | Structure (SMILES)
0.27 µM | N#Cc1cn(CC2CCCC2)c2ccc(-c3cc(C(=O)O)no3)cc12
0.14 µM | N#Cc1cn(C2CCCC2)c2ccc(-c3cc(C(=O)O)no3)cc12
0.2 µM | N#Cc1cn(Cc2ccccc2Cl)c2ccc(-c3cc(C(=O)O)no3)cc12
0.26 µM | Cc1ccccc1Cn1cc(C#N)c2cc(-c3cc(C(=O)O)no3)ccc21
0.24 µM | CC(C)Cn1cc(C#N)c2cc(-c3cc(C(=O)O)no3)ccc21
0.25 µM | N#Cc1cn(C2CCC2)c2ccc(-c3cc(C(=O)O)no3)cc12
0.19 µM | CC(C)=Cn1cc(C#N)c2cc(-c3cc(C(=O)O)no3)ccc21
0.38 µM | CC(C)CCn1cc(C#N)c2cc(-c3cc(C(=O)O)no3)ccc21
0.13 µM | CC(C)n1cc(C#N)c2cc(-c3cc(C(=O)O)no3)ccc21
0.32 µM | CCCn1cc(C#N)c2cc(-c3cc(C(=O)O)no3)ccc21
0.31 µM | N#Cc1cn(Cc2ccccc2F)c2ccc(-c3cc(C(=O)O)no3)cc12
0.39 µM | C=CCn1cc(C#N)c2cc(-c3cc(C(=O)O)no3)ccc21

Biological target: T1, Xanthine dehydrogenase/oxidase
Assay: Binding affinity to bovine xanthine oxidase assessed as inhibition constant
Settings: not given

Ki | Structure (SMILES)
0.04 µM | CC(C)n1cc(C#N)c2cc(-c3cc(C(=O)O)no3)ccc21

Biological target: T1, Xanthine dehydrogenase/oxidase
Assay: Mixed type inhibition of bovine xanthine oxidase assessed as increase in Km with decrease in Vmax using xanthine as substrate at upto 0.30 uM by Lineweaver-Burk plot analysis
Settings: cattle, 0.3 µM

inhibition (INH) | Structure (SMILES)
Active | CC(C)n1cc(C#N)c2cc(-c3cc(C(=O)O)no3)ccc21
